# Reference: PubChem BioAssay (NCI)
# Where “and” joins values, the source holds several entries; their conditions need not be identical. Equal entries are not always repeated.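 Values below derive from 48-hour exposures of cells grown in 96-well plates, with endpoints linearly interpolated between the two concentrations bracketing the appropriate inhibition level. The concentration for 50% growth inhibition is given as GI50. TGI marks complete inhibition of growth.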
# Legend:
# Test in all cases: growth of human tumour cells (NCI), 48 h
# [1] = test system: EKVX NSCLC
# [2] = test system: OVCAR-3 ovarian
# [3] = test system: NCI-H23 lung
# [4] = test system: IGROV1 ovarian
# [5] = test system: NCI-H522 lung
# [6] = test system: MCF7 breast
# [7] = test system: MDA-MB-435
# [8] = test system: SW-620 colon
# [9] = test system: M14 melanoma
# [10] = test system: SK-MEL-5 melanoma
Compound,GI50 [1],TGI [1],GI50 [2],TGI [2],GI50 [3],TGI [3],GI50 [4],TGI [4],GI50 [5],TGI [5],GI50 [6],TGI [6],GI50 [7],TGI [7],GI50 [8],TGI [8],GI50 [9],TGI [9],GI50 [10],TGI [10]
COc1cc(-c2cc3ncccc3c3nc(N)c4cccnc4c23)cc(OC)c1OC,0.763 µM,50.4 µM,0.229 µM,2.68 µM,1.28 µM,51.2 µM,1.56 µM,> 100 µM,0.0576 µM,12 µM,0.327 µM,> 100 µM,0.0455 µM,11.2 µM,0.468 µM,> 100 µM,0.284 µM,3.02 µM,0.296 µM,1.99 µM
O=C(CC(c1ccccc1)c1c(O)c2ccccc2oc1=O)c1ccccc1 (configuration not stated),–,> 100 µM,–,> 81.9 µM,–,> 100 µM,–,> 100 µM,–,> 100 µM,–,> 100 µM,–,> 100 µM,–,> 100 µM,–,> 100 µM,–,> 100 µM
C=C1C(O)C2C(=C(CCc3ccccc3)C13CC3)C(=O)C(C)(CO)C2O (configuration not stated),> 100 µM,> 100 µM,> 100 µM,> 100 µM,> 100 µM,> 100 µM,> 100 µM,> 100 µM,> 100 µM,> 100 µM,53.5 µM,> 100 µM,> 100 µM,> 100 µM,> 100 µM,> 100 µM,> 100 µM,> 100 µM,> 100 µM,> 100 µM
COC(=O)[C@@H](C)C[C@H](Cc1ccccc1)NC(=O)c1csc(CC[C@H](C(C)C)N(C)C(=O)[C@@H](NC(=O)[C@H]2CCCCN2C)C(C)C)n1,1.33 µM,> 33.3 µM,0.108 µM,–,0.882 µM,> 33.3 µM,0.291 µM,> 33.3 µM,0.0656 µM,0.301 µM,0.078 µM,> 33.3 µM,0.0407 µM,0.17 µM,0.164 µM,> 33.3 µM,0.262 µM,1.52 µM,0.0981 µM,0.747 µM
CCN(Cc1cccc(F)c1)c1ccc(CO)c(Cl)c1,22.3 µM,> 76 µM,0.711 µM,6.71 µM,10.8 µM,74.4 µM,0.0779 µM,1.15 µM,19.2 µM,58.6 µM,0.216 µM,17.8 µM,18.2 µM,55.1 µM,0.808 µM,> 100 µM,19.2 µM,66.8 µM,3.86 µM,20.4 µM
COc1cccc(-c2nc3sccn3c2-c2ccnc(NCCCNS(=O)(=O)c3cccc(F)c3)c2)c1,2.99 µM,> 100 µM,3.06 µM,> 100 µM,2.12 µM,7.29 µM,2.39 µM,9.77 µM,2.11 µM,8.41 µM,2.49 µM,> 100 µM,2.29 µM,5.71 µM,3.16 µM,> 100 µM,2.35 µM,6.05 µM,1.56 µM,3.63 µM
Clc1nc(Cl)c2ncn(Cc3cccc(Cn4cnc5c(Cl)nc(Cl)nc54)c3)c2n1,3.09 µM,11 µM,2.38 µM,7.22 µM,8.5 µM,22.1 µM,7.33 µM,20.2 µM,2.9 µM,7.01 µM,3.66 µM,37.4 µM,7.29 µM,22.2 µM,1.82 µM,3.34 µM,2.77 µM,7.65 µM,2.47 µM,5.87 µM
Cc1nc(SCC(=O)Nc2nc(-c3ccc(Cl)cc3)cs2)n(Nc2ccccc2)c1C,1.84 µM,12.2 µM,3 µM,12.1 µM,1.85 µM,6.02 µM,3.36 µM,20.6 µM,2.54 µM,13.7 µM,2.94 µM,11.4 µM,3.25 µM,21.8 µM,5.5 µM,22.9 µM,3.69 µM,16 µM,2.24 µM,6.31 µM
C#Cc1cccc(N2C(=O)CCC2=O)c1,–,34.3 µM,–,37.3 µM,–,24.5 µM,–,37.9 µM,–,11.9 µM,–,44.5 µM,–,31.2 µM,–,19.2 µM,–,11.7 µM,–,37.1 µM
Cc1cnc(NC(=O)Nc2cc(Br)c(C)cc2OC[C@@H]2CNCCO2)cn1,3.22 µM and 3.24 µM,> 10 µM and 15.9 µM,1.37 µM and 1.13 µM,> 10 µM and 10.2 µM,0.466 µM and 0.548 µM,> 10 µM and 9.42 µM,0.979 µM and 1.36 µM,> 10 µM and 17 µM,2.1 µM and 2.46 µM,> 10 µM and 11.5 µM,0.431 µM and 0.418 µM,> 10 µM and 6.15 µM,0.459 µM and 0.378 µM,3.58 µM and 2.43 µM,3.68 µM and 3.28 µM,> 10 µM and 13.4 µM,0.338 µM and 0.311 µM,1.37 µM and 0.999 µM,1.43 µM and 1.09 µM,4.22 µM and 2.92 µM
CN[C@H]1C=C[C@@H]2/C=C(C)/C=C/[C@@H](C)[C@H]([C@H](C)[C@H](O)[C@@H](C)NC(C)=O)OC(=O)/C=C/C=C(C)\C=C\[C@]2(C)C1,–,> 49 µM,–,46.7 µM,0.0687 µM and 0.0376 µM,> 49 µM,0.0049 µM,> 49 µM,0.045 µM and 0.0229 µM,13.1 µM,< 0.001 µM and 0.0049 µM,> 49 µM,< 0.001 µM and 0.0049 µM,9.14 µM,0.00655 µM,> 49 µM,< 0.001 µM and 0.0049 µM,7.24 µM,0.0049 µM,0.552 µM
C=C(C)C(=O)O[C@H]1C[C@@]23O[C@@H]2CCC(=C[C@H]2OC(=O)C(=C)[C@H]12)COC3O (some centres not stated),–,> 100 µM,–,> 100 µM,–,> 100 µM,–,> 100 µM,–,30.7 µM,–,> 100 µM,–,> 100 µM,–,36.4 µM,–,> 100 µM,–,> 100 µM
